± gives the expanded uncertainty stated by the source.
How the values were obtained:
[1] = Liquid; for viscosity: 100 kPa, Capillary tube (Ostwald / Ubbelohde) method; for mass density: 101.33 kPa, Pycnometric method
[2] = xn = mol fraction of the nth substance listed; settings: 303.15 K, 100 kPa, Liquid; for viscosity: Capillary tube (Ostwald / Ubbelohde) method; for excess molar volume: Direct dilatometry; for speed of sound: Frequency=3 MHz, Sing-around technique in a fixed-path interferometer; for mass density: Pycnometric method

Clc1ccc(Cl)c(Cl)c1 [1,2,4-trichlorobenzene]
[1], 303.15 K
Settings	mass density [kg/m3]	viscosity [mPa·s]
–	1442.12 ± 14	1.611 ± 0.015

Cc1cccc([N+](=O)[O-])c1 [3-nitrotoluene]
[1], 303.15 K
Settings	mass density [kg/m3]	viscosity [mPa·s]
–	1147.67 ± 12	1.775 ± 0.016

Cc1cccc(Cl)c1 [3-chlorotoluene]
[1]
Settings	mass density [kg/m3]	viscosity [mPa·s]
293.15 K	1072.15 ± 11	–
303.15 K	–	0.782 ± 0.012

Cc1ccccc1Cl [2-chlorotoluene]
[1], 303.15 K
Settings	mass density [kg/m3]	viscosity [mPa·s]
–	1072.82 ± 11	0.884 ± 0.012

Clc1cccc(Cl)c1 [1,3-dichlorobenzene]
[1], 303.15 K
Settings	mass density [kg/m3]	viscosity [mPa·s]
–	1277.16 ± 13	1.023 ± 0.013

Cc1ccc(Cl)cc1 [4-chlorotoluene]
[1]
Settings	mass density [kg/m3]	viscosity [mPa·s]
298.15 K	1065.14 ± 11	–
303.15 K	–	0.902 ± 0.012

Cc1cccc([N+](=O)[O-])c1 [3-nitrotoluene] + CC(=O)N(C)C
[2]
Settings	excess molar volume [m3/mol]	mass density [kg/m3]	speed of sound [m/s]	viscosity [mPa·s]
x2 = 0.0678	–	1133.63 ± 11	2077 ± 3	–
x2 = 0.0851	1.8e-08 ± 6e-09	–	–	1.76 ± 0.021
x2 = 0.1256	–	1121.68 ± 11	2039 ± 3	–
x2 = 0.1552	3e-08 ± 6e-09	–	–	1.752 ± 0.021
x2 = 0.1998	–	1106.36 ± 11	1958 ± 3	–
x2 = 0.242	4.2e-08 ± 6e-09	–	–	1.71 ± 0.02
x2 = 0.2449	–	1097.04 ± 11	1906 ± 3	–
x2 = 0.291	–	1087.34 ± 11	1857 ± 3	–
x2 = 0.2931	4.9e-08 ± 6e-09	–	–	1.686 ± 0.02
x2 = 0.3451	5.4e-08 ± 6e-09	–	–	1.646 ± 0.02
x2 = 0.3485	–	1075.63 ± 11	1802 ± 3	–
x2 = 0.395	–	1066.03 ± 11	1763 ± 3	–
x2 = 0.4062	5.9e-08 ± 6e-09	–	–	1.603 ± 0.019
x2 = 0.455	6.2e-08 ± 6e-09	–	–	1.568 ± 0.019
x2 = 0.4577	–	1053.07 ± 11	1729 ± 3	–
x2 = 0.4919	–	1046.01 ± 10	1699 ± 3	–
x2 = 0.5191	6.5e-08 ± 6e-09	–	–	1.519 ± 0.018
x2 = 0.5429	–	1035.49 ± 10	1676 ± 3	–
x2 = 0.5532	6.6e-08 ± 6e-09	–	–	1.492 ± 0.018
x2 = 0.5935	–	1025.05 ± 10	1656 ± 3	–
x2 = 0.603	6.6e-08 ± 6e-09	–	–	1.451 ± 0.018
x2 = 0.6512	6.5e-08 ± 6e-09	–	–	1.408 ± 0.017
x2 = 0.6596	–	1011.39 ± 10	1632 ± 3	–
x2 = 0.708	–	1001.42 ± 10	1616 ± 3	–
x2 = 0.7125	6.3e-08 ± 6e-09	–	–	1.348 ± 0.017
x2 = 0.7561	5.9e-08 ± 6e-09	–	–	1.3 ± 0.016
x2 = 0.7751	–	987.57 ± 9.9	1589 ± 3	–
x2 = 0.8151	5.1e-08 ± 6e-09	–	–	1.224 ± 0.016
x2 = 0.9654	–	948.44 ± 9.5	1473 ± 3	–
x2 = 0.9727	1.2e-08 ± 6e-09	–	–	0.935 ± 0.013

Clc1cccc(Cl)c1 [1,3-dichlorobenzene] + CC(=O)N(C)C
[2]
Settings	excess molar volume [m3/mol]	mass density [kg/m3]	speed of sound [m/s]	viscosity [mPa·s]
x2 = 0.0879	–	1248.69 ± 13	1277 ± 3	–
x2 = 0.1045	-3e-08 ± 6e-09	–	–	1.024 ± 0.014
x2 = 0.1294	–	1235.21 ± 12	1284 ± 3	–
x2 = 0.1525	-4.5e-08 ± 6e-09	–	–	1.023 ± 0.014
x2 = 0.1659	–	1223.28 ± 12	1290 ± 3	–
x2 = 0.1941	-5.4e-08 ± 6e-09	–	–	1.022 ± 0.014
x2 = 0.2267	–	1203.33 ± 12	1301 ± 3	–
x2 = 0.262	-6.7e-08 ± 6e-09	–	–	1.021 ± 0.014
x2 = 0.2831	–	1184.73 ± 12	1312 ± 3	–
x2 = 0.3235	-7.5e-08 ± 6e-09	–	–	1.02 ± 0.014
x2 = 0.3601	–	1159.16 ± 12	1326 ± 3	–
x2 = 0.4052	-7.7e-08 ± 6e-09	–	–	1.019 ± 0.014
x2 = 0.42	–	1139.1 ± 11	1337 ± 3	–
x2 = 0.4672	-7.3e-08 ± 6e-09	–	–	1.018 ± 0.014
x2 = 0.4742	–	1120.88 ± 11	1347 ± 3	–
x2 = 0.522	-6.6e-08 ± 6e-09	–	–	1.017 ± 0.014
x2 = 0.6086	–	1075.37 ± 11	1372 ± 3	–
x2 = 0.6531	-4e-08 ± 6e-09	–	–	1.016 ± 0.014
x2 = 0.6847	–	1049.44 ± 11	1385 ± 3	–
x2 = 0.7245	-2.5e-08 ± 6e-09	–	–	1.015 ± 0.014
x2 = 0.7295	–	1034.11 ± 10	1393 ± 3	–
x2 = 0.7656	-1.4e-08 ± 6e-09	–	–	1.014 ± 0.014
x2 = 0.7721	–	1019.55 ± 10	1400 ± 3	–
x2 = 0.804	-7e-09 ± 6e-09	–	–	1.013 ± 0.014
x2 = 0.8389	–	996.66 ± 10	1413 ± 3	–
x2 = 0.8631	2e-09 ± 6e-09	–	–	1.011 ± 0.014
x2 = 0.8967	–	969.13 ± 9.7	1429 ± 3	–
x2 = 0.9131	–	–	–	1.007 ± 0.014
x2 = 0.969	–	945.84 ± 9.5	1437 ± 3	–
x2 = 0.9743	–	–	–	0.952 ± 0.013

Clc1ccccc1Cl [1,2-dichlorobenzene]
[1], 303.15 K
Settings	mass density [kg/m3]	viscosity [mPa·s]
–	1299.2 ± 13	1.301 ± 0.014
